Measurements as given in patent US20140004209A1, “AUTOPHAGY INDUCER AND INHIBITOR COMBINATION THERAPY FOR THE TREATMENT OF NEOPLASMS” (GENENTECH, INC., priority 2010, published 2014).
Entries after “also recorded” stand apart in the source; their conditions may differ. Read-outs that look alike come from different tables or passages of the source.

Key:
Format in all cases: cell-based, human
PC3 cells [1] = assay: Microarray analysis of autophagy gene expression in PC3 cells; conditions: 1 or 5 μM for 6 or 24 hours, normalized to DMSO
Method: PC3 cells were induced to express shRNA to indicated Akt isoforms for 72 hours by Doxycycline, RNA was extracted from both Dox treated (Dox+) or untreated control (Dox−) cells. Microarray analysis was carried out using Affymetrix chips. Ratios of the expression levels of each autophagy gene from Dox+ and Dox− samples are shown. Data are mean values from 3 independent experiments.
RNA was extracted from the cells. Microarray analysis was carried out using Affymetrix chips. Expression levels of each autophagy gene are normalized to the DMSO controls. Data are mean values from 3 independent experiments.

Akt = assay: Immunoblot of Akt and S6 phosphorylation in PC3 cells; conditions: II-4 alone
Description: (§1) Western blot analysis, immunofluorescence, 1HC and TUNEL assay: For Western blot analysis, total protein lysates were subjected to SDS-PAGE and transferred to nitrocellulose. Antibodies used were: anti-Akt1, anti-Akt2, anti-Akt3, anti-total-Akt, anti-p-Akt (Ser473), anti-p-Akt (Thr308), anti-p-S6 (Ser235/236), anti-PARP and anti-cleaved caspase-3 (Cell Signaling Technology); anti-p-PRAS40 (Invitrogen); anti-p27^Kip1 (Santa Cruz Biotechnology); anti-LC3 (Novus); anti-LAMP2 and anti-Cathepsin D (BD Biosciences); and anti-GAPDH (Advanced Immunochemical Inc.). Primary antibodies were detected using IR Dye 800-conjugated (Rockland) and Alexa-Fluoro 680-conjugated (Molecular Probes) species-selective secondary antibodies. Detection and quantification were performed using an Odyssey infrared scanner (LICOR) using the manufacturer's software. For immunofluorescence staining, cells were fixed in 3% paraformaldehyde and permeabilized with 0.01% digitonin in PBS, followed by a rabbit polyclonal anti-LC3 (Abgent) primary antibody detected with a cy3-conjugated anti-rabbit secondary antibody (Jackson Immunoresearch). For IHC, formalin-fixed, paraffin-embedded specimens were collected. 5-μm-thick paraffin-embedded sections were stained using an anti-Ki-67 (MIB-1, DakoCytomation) antibody with the Dako ARK kit (Dako Corporation). Tissues were counterstained with haematoxylin, dehydrated, and mounted. In all cases, antigen retrieval was performed with the Dako Target Retrieval Kit as per manufacturer's instructions. For TUNEL assay, formalin-fixed, paraffin-embedded sections were stained using an in situ cell death detection kit (POD; Roche Diagnostic) according to the manufacturer's instructions.

PC3 cells [2] = assay: PC3 cell viability and cell death (PI exclusion, annexin V, caspase-3/7); conditions: 4 μM II-4, 10 μM CQ, 0.5% FBS, 10 d
Method: Cell viability and cell cycle analysis. Cell number and viability was measured using trypan blue exclusion assay using a Vi-Cell Analyzer (Beckman Coulter), or labeled with 1 μg/ml PI in PBS/1% BSA followed by cytofluorometric analysis with a fluorescence-activated cell sorter (FACS) (Becton Dickinson). FITC-conjugated Annexin V was used for the assessment of phosphatidylserine exposure by FACS analysis. Caspase activation was analyzed using a Caspase-Glo 3/7 Assay kit (Promega). For cell cycle analysis, cells were fixed with drop-wise addition of chilled 70% ethanol, washed with PBS and resuspended in staining solution containing 50 μg/ml PI and 60 units of RNAse A. DNA content was analyzed by flow cytometry using the FlowJo and ModFit software (Becton Dickinson).

PC3 cells [3] = assay: Immunoblot of LAMP1, cathepsin D and p62 in PC3 cells
Description: as §1, with “Primary antibodies were detected using IR Dye 800-conjugated (Rockland) and Alexa-Fluoro 680-conjugated (Molecular Probes) species-selective secondary antibodies.” left out
Because autophagy is a key function of the lysosomal compartment (Terman, A., B. Gustafsson, and U. T. Brunk, (2006), The lysosomal-mitochondrial axis theory of postmitotic aging and cell death. Chem Biol Interact. 163:29-37), we examined the lysosomal marker LAMPI and cathepsin D, the predominant lysosomal aspartic protease, by immunoblotting (FIG. 6, B and C). […] Cathepsin D is synthesized as a 43-kD preprocathepsin D that is cleaved cotranslationally and glycosylated to form a 46-kD procathepsin D, which is targeted to lysosomes yielding an intermediate that is further cleaved into a mature enzyme consisting of a 15-kD light chain and a 28-kD heavy chain.

PC3 cells [4] = assay: Time-lapse microscopy of PC3 cells; conditions: 5% FBS
Method: Time-lapse video microscopy: Cells cultured in 24-well plates were imaged on an Olympus IX81 inverted microscope under environmental control (37° C. and 5% CO2) for 3 days. Imaging started 6 hours after the addition of the compounds and was taken at 1-hour intervals.

## O=c1[nH]c2ccccc2n1C1CCN(Cc2ccc(-c3nc4cc5nc[nH]c5cc4nc3-c3ccccc3)cc2)CC1 [II-4, 1-(1-(4-(7-phenyl-1H-imidazo[4,5-g]quinoxalin-6-yl)benzyl)piperidin-4-yl)-1H-benzo[d]imidazol-2 (3H)-one]
PC3 cells [1]
  autophagy gene expression: induce autophagy gene expression
Akt
  phosphorylation of Akt on Ser473 and Thr308: effectively inhibited the phosphorylation of Akt on both Ser473 and Thr308 residues
  phosphorylation of downstream target S6: significantly reduced the phosphorylation of downstream target S6
PC3 cells [2]
  cell viability, II-4 (Akti-1/2) in combination with CQ: CQ accelerated cell death in combination with II-4; also recorded: rapid drop in cell viability with complete cell death observed by day 10
PC3 cells [2]; listed as Akti-1/2
  cell viability, II-4 (Akti-1/2) in combination with CQ: significantly accelerated death rate
PC3 cells [3]
  cathepsin D forms, II-4 and CQ: the precursor forms of cathepsin D accumulated to even higher levels than either alone, whereas the mature 28-kD chain decreased gradually
  p62 level: reduced the level of p62
PC3 cells [3]; agent alone
  LAMP1 levels: increase in LAMP1 levels
PC3 cells [3]; listed as Akti
  p62 level: caused a reduction in p62 levels
PC3 cells [4]; 10 μM II-4, 10 μM CQ
  cell morphology, II-4 and CQ: cell shrinkage and plasma membrane rupture was observed within 48 h
PC3 cells [4]; 10 μM, 3 d
  cell division and morphology, agent alone: near-complete inhibition of cell division without overt cell death
